# Experimental data reported in US20070148710A1, “Cpt resistant cell line” (priority 2003, published 2007).
# Read-outs that look alike come from different tables or passages of the source.
# Legend:
# SW948 cells = assay: clonogenic cell survival assay, CPT-11 IC50; format: cell-based; details: Homo sapiens
# Experimental: 81. […] Cells were then washed with PBS and cultured in fresh medium without CPT-11 and a colony formation assay initiated. Ten days later, the surviving fraction of the SW948 and SW948CPTH cells was determined.
# 82. […] This level of sensitivity was similar to that reported for other cell lines (Kanzawa et al. Cancer Res 50:5919-5924, 1990; Kojima et al. Cancer Res 58:4368-4374, 1998; and Kojima et al. J Clin Invest 101:1789-1796, 1998).
# SW948CPTH cells [1] = assay: clonogenic assay, CPT-11 IC50; format: cell-based; details: Homo sapiens
# Experimental: 7. […] IC50 was determined using a clonogenic assay.
# Ten days later, the surviving fraction of the SW948 and SW948CPTH cells was determined.
# The cells were then washed, fresh medium added, and plated for colony formation.
# SW948CPTL cells [2] = assay: clonogenic assay, CPT-11 IC50; format: cell-based; details: Homo sapiens, read-out: CPT-11 IC50
# Experimental: 8. […] IC50 was determined using a clonogenic assay.
# [3] = tested on: SW948CPTH cell lines recovered from xenografts; assay: clonogenic assay on cell lines recovered from tumor xenografts; format: cell-based; details: Homo sapiens, cultured 2-4 weeks CPT-11-free
# SW948CPTH = assay: cell proliferation assay, cross-resistance to topoisomerase I and II inhibitors; format: cell-based, human
# Description: (§1) Drug resistance to other topoisomerase I and II inhibitors was examined by determining the IC50 dose of each drug using a cell proliferation assay as shown in Table 3.
# SW948 = assay: as above; format: cell-based, human; details: Homo sapiens; SW948 parental; mean ± SD, 2-4 independent assays; read-out: Sensitivity expressed as IC50
# Description: as §1
# SW948CPTH cells [4] = assay: cell cycle analysis; format: cell-based, human
# SW948CPTL cells [5] = assay: cell cycle analysis; format: cell-based, human
# [6] = tested on: SW948 colon carcinoma cells; assay: induction of early apoptosis (annexin V-FITC / propidium iodide, FACS); format: cell-based, human; details: SW948 in vitro, 4 days post-treatment (FIG. 10)
# Description: 14. […] Floating and adherent cells were collected 4 days post-treatment. The treatments are described in the legend for FIG. 8. The cells were stained with annexin V-FITC and propidium iodide, then analyzed by FACS using CellQuest software (Beckton-Dickenson, San Diego, Calif.). Data points are the average±SEM of a representative experiment done in triplicate.
# [7] = tested on: SW948 human colon cancer xenografts; assay: tumor xenograft growth; format: in vivo, Balb/c athymic nude mice; details: initial study: Erbitux 1 mg i.p. every 3 days, CPT-11 40 mg/kg i.v. every 6 days, 3 Gy radiation (FIG. 11); n=7
# Experimental: 15. […] Erbitux® (1 mg) was administered i.p. every 3 days for 5 weeks beginning on day 22 after tumor cell injection. […] Mean change in tumor size relative to size on day 22 (n=7 mice/group) is shown. At the time of Erbitux® administration (day 22), the mean±SD size of the tumors were 71.8±39.8 mm^2.
# 16. […] Erbitux® (1 mg) was administered i.p. 2 times a week for 3 weeks (days 24, 27, 31, 34, 38, and 41) beginning on day 24 after tumor cell injection. […] Mean change in tumor size relative to size on day 24 (n=7 mice/group). At the time of Erbitux® administration (day 24), the mean±SD size of the tumors were 58.0±29.3 mm^2.
# 91. Additional studies against SW948 colon cancer cells have been carried out in vitro and with SW948 tumor xenografts. […] FIG. 10 illustrates the induction of apoptosis in SW948 cells in vitro following treatment with these agents. […] This experiment was run concurrently with a third experiment in which SW948CPTH cells were used in the xenograft (FIG. 13).
# 92. Balb/c athymic nude mice were injected subcutaneously with 2×10^7 SW948 or SW948CPTH cells. […] Change in average tumor size measured with calipers (surface area equal to product of two largest diameters) for each group relative to the size on day 24 was determined. […] Change in average tumor size relative to day 22 was monitored as described above for SW948 tumors.
compound,measurement,setting,value
"CCc1c2c(nc3ccc(OC(=O)N4CCC(N5CCCCC5)CC4)cc13)-c1cc3c(c(=O)n1C2)COC(=O)[C@]3(O)CC [CPT-11, Irinotecan]",IC50,"SW948 cells; SW948, read-out: CPT-11 IC50 concentration (colony formation)",2.8 µg/mL
same,IC50,"SW948 cells; read-out: CPT-11 IC50 of untreated SW948 cells, untreated SW948, mean value",2.1 ± 0.3 µg/mL
same,IC50,"SW948CPTH cells [1]; 192 h, read-out: CPT-11 IC50, SW948CPTH exposed to 80 μg/ml CPT-11, 8 days when assayed, tested in presence of CPT-11",79 µg/mL
same,IC50,"SW948CPTH cells [1]; 336 h, read-out: CPT-11 IC50, SW948CPTH exposed to 8 μg/ml CPT-11, 14 days when assayed, tested in presence of CPT-11",18.2 µg/mL
same,IC50,"SW948CPTH cells [1]; 480 h, read-out: CPT-11 IC50, SW948CPTH exposed to 8 μg/ml CPT-11, 20 days when assayed, tested in presence of CPT-11",15.6 µg/mL
same,IC50,"SW948CPTH cells [1]; 480 h, read-out: CPT-11 IC50, SW948CPTH exposed to 30 μg/ml CPT-11, 20 days when assayed, tested in presence of CPT-11",18 µg/mL
same,IC50,"SW948CPTH cells [1]; 552 h, read-out: CPT-11 IC50, SW948CPTH exposed to 10 μg/ml CPT-11, 23 days when assayed, tested in presence of CPT-11",21.3 µg/mL
same,IC50,"SW948CPTH cells [1]; 600 h, read-out: CPT-11 IC50, SW948CPTH exposed to 20 μg/ml CPT-11, 25 days when assayed, tested in presence of CPT-11",23.6 µg/mL
same,IC50,"SW948CPTH cells [1]; […], read-out: CPT-11 IC50, SW948CPTH exposed to 30 μg/ml CPT-11, 19 days when assayed, tested in presence of CPT-11",21.3 µg/mL
same,IC50,"SW948CPTH cells [1]; read-out: CPT-11 IC50, SW948CPTH exposed to 20 μg/ml CPT-11, 30 days when assayed, tested in presence of CPT-11",18.2 µg/mL
same,IC50,"SW948CPTH cells [1]; read-out: CPT-11 IC50, SW948CPTH exposed to 20 μg/ml CPT-11, 51 days when assayed, tested in presence of CPT-11",24 µg/mL
same,IC50,"SW948CPTH cells [1]; read-out: CPT-11 IC50, SW948CPTH exposed to 20 μg/ml CPT-11, 60 days, CPT-11 withdrawn for 33 days prior to IC50 determination",19 µg/mL
same,IC50,"SW948CPTH cells [1]; read-out: CPT-11 IC50, SW948CPTH exposed to 20 μg/ml CPT-11, 65 days when assayed, tested in presence of CPT-11",34 µg/mL
same,IC50,"SW948CPTH cells [1]; read-out: CPT-11 IC50, SW948CPTH exposed to 30 μg/ml CPT-11, 47 days when assayed, tested in presence of CPT-11",19 µg/mL
same,IC50,"SW948CPTH cells [1]; read-out: CPT-11 IC50, SW948CPTH exposed to 40 μg/ml CPT-11, 30 days when assayed, tested in presence of CPT-11",55 µg/mL
same,IC50,"SW948CPTH cells [1]; read-out: CPT-11 IC50 Dose, SW948CPTH treated 20 μg/ml CPT-11 62 days, 5 days after removal of CPT-11",25 µg/mL
same,IC50,"SW948CPTH cells [1]; read-out: CPT-11 IC50 Dose, SW948CPTH treated 20 μg/ml CPT-11 62 days, 21 days after removal of CPT-11",18.9 µg/mL
same,IC50,"SW948CPTH cells [1]; read-out: CPT-11 IC50 Dose, SW948CPTH treated 20 μg/ml CPT-11 62 days, 40 days after removal of CPT-11",19 µg/mL
same,IC50,"SW948CPTH cells [1]; read-out: CPT-11 IC50 Dose, SW948CPTH treated 20 μg/ml CPT-11 62 days, 45 days after removal of CPT-11",19.2 µg/mL
same,IC50,"SW948CPTH cells [1]; read-out: CPT-11 IC50 Dose, SW948CPTH treated 20 μg/ml CPT-11 62 days, 68 days after removal of CPT-11",11.4 µg/mL
same,IC50,"SW948CPTH cells [1]; read-out: CPT-11 IC50 Dose, SW948CPTH treated 20 μg/ml CPT-11 62 days, 89 days after removal of CPT-11",13.4 µg/mL
same,IC50,SW948CPTL cells [2]; 168 h,4.8 µg/mL
same,IC50,SW948CPTL cells [2]; 600 h,12.9 µg/mL
same,IC50,SW948CPTL cells [2],16 µg/mL
same,IC50,"[3]; read-out: CPT-11 IC50 Dose, SW948CPTH xenograft #16 (CPT-11 treated tumor), 134 days after implant",24.7 µg/mL
same,IC50,"[3]; read-out: CPT-11 IC50 Dose, SW948CPTH xenograft #51 (untreated tumor), 121 days after implant",18 µg/mL
same,IC50,"[3]; read-out: CPT-11 IC50 Dose, SW948CPTH xenograft #53 (untreated tumor), 124 days after implant",32.2 µg/mL
same,IC50,"[3]; read-out: CPT-11 IC50 Dose, SW948CPTH xenograft #54 (untreated tumor), 103 days after implant",25.1 µg/mL
same,IC50,"SW948CPTH; Homo sapiens, read-out: Sensitivity expressed as IC50",43.7 ± 8.6 µg/mL
same,change in resistance of SW948CPTH cells compared to the parental cell line SW948,SW948CPTH; IC50 by cell proliferation assay (Table 3),increased resistance
same,IC50,SW948,3 ± 0.4 µg/mL
same,G0-G1(%),SW948CPTH cells [4]; CPT-11 1 μg/ml,45.7 ± 6.2%
same,G2-M(%),SW948CPTH cells [4]; CPT-11 1 μg/ml,8.3 ± 3.1%
same,S(%),SW948CPTH cells [4]; CPT-11 1 μg/ml,46 ± 7.5%
same,G0-G1(%),SW948CPTH cells [4]; CPT-11 2 μg/ml,44.6 ± 3.8%
same,G2-M(%),SW948CPTH cells [4]; CPT-11 2 μg/ml,8.9 ± 1.9%
same,S(%),SW948CPTH cells [4]; CPT-11 2 μg/ml,46.5 ± 3.9%
same,G0-G1(%),SW948CPTH cells [4]; CPT-11 5 μg/ml,45.0 ± 3.0%
same,G2-M(%),SW948CPTH cells [4]; CPT-11 5 μg/ml,12.2 ± 2.3%
same,S(%),SW948CPTH cells [4]; CPT-11 5 μg/ml,42.8 ± 4.9%
same,change of cell cycle,SW948CPTH cells [4]; similar amount of CPT-11,did not cause any change
same,G0-G1(%),SW948CPTL cells [5]; CPT-11 1 μg/ml,50.0 ± 1.7%
same,G2-M(%),SW948CPTL cells [5]; CPT-11 1 μg/ml,10.0 ± 1.4%
same,S(%),SW948CPTL cells [5]; CPT-11 1 μg/ml,40.3 ± 2.4%
same,G2-M(%),SW948CPTL cells [5]; CPT-11 2 μg/ml,11.2 ± 2.6%
same,S(%),SW948CPTL cells [5]; CPT-11 2 μg/ml,43.1 ± 6.5%
same,G2-M(%),SW948CPTL cells [5]; CPT-11 5 μg/ml,13.9 ± 2.2%
same,S(%),SW948CPTL cells [5]; CPT-11 5 μg/ml,40.8 ± 6.4%
same,change of cell cycle,SW948CPTL cells [5]; similar amount of CPT-11,did not cause any change
same,induction of apoptosis,[6],high level of apoptosis
same,complete regressions,[7],0/7
